Measured values: paper PMC3990705, “A p38 Substrate-Specific MK2-EGFP Translocation Assay for Identification and Validation of New p38 Inhibitors in Living Cells: A Comprising Alternative for Acquisition of Cellular p38 Inhibition Data” (PLoS ONE, 2014)
Where two headings read alike, the source gives them in different places.

Key:
p38 MAPK = target: T1, p38 MAPK (Homo sapiens, UniProt Q16539); assay: MK2-EGFP translocation assay (High Content Analysis); type: cell-based; conditions: for nuc/cyt ratio at 15 nM ± SD: 15 nM compound, activated U2OS MK2-EGFP cells, N = 3; for potency towards p38 inhibition in the translocation screen: 1.5 µM, 150 nM, 15 nM, normalized to Skepinone-L
T1 construct: endogenous in cells; host or cells: U2OS-MK2-EGFP-clone-RA#2
T1 sequence (Q16539 whole entry): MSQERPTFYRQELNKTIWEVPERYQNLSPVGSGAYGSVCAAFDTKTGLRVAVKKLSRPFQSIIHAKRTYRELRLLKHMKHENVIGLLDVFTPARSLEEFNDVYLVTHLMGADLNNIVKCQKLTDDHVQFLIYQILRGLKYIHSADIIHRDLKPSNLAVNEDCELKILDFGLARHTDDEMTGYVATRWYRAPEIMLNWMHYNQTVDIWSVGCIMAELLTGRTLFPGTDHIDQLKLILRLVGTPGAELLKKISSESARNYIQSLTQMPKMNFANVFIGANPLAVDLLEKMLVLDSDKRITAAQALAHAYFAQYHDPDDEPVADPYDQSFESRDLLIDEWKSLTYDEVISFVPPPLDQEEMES
Procedure: Screening was performed in biological duplicates on different days and different cell line passages. For cellular screening ∼ 12.500 cells were seeded into 96-well clear tissue-culture micro-plates (Bio-One µClear, Greiner, Germany) and grown until 90% confluence. The Rac/p38 MAPK pathway was activated by exchanging normal growth media with hyperosmotic media. […] Plates were mixed thoroughly and incubated at 37°C and 5% CO2 in a humidified chamber atmosphere. After 80–90 minutes the treatment was stopped by disposing the media. Subsequently cell were fixed using 3% PFA/PBS in 1x PBS at pH 7.4 for 15 minutes and washed with PBS and PBST (0.05% Tween-20) following nuclear DNA staining using 150 ng/mL DAPI in 1xPBS/35 µg/mL RNAseA. Finally, plates were transferred in an automated cytomat incubator (Thermo Scientific, Germany) combined with a robotic plate handling device (PAA, UK) and subjected to automated image acquisition.
Images of EGFP and DAPI fluorescent cells were acquired using an Image Xpress micro XL microscope (Molecular Devices, Germany). […] On average 400 cells per well were imaged, allowing reliable statistical measures and quantification.
Automated image analysis was carried out using the MetaXpress software (Molecular Devices, Germany). Fluorescence intensity ratios were calculated using the average of the cellular MK2-EGFP fluorescence intensity (Cell: nuclear inner/outer mean intensity) of all images/sites per well. p38 activation was defined as positive when the nucleocytoplasmic MK2-fluorescence intensity ratio was below 0.7. For further analysis, the average of the mean of the entire plate was calculated and used for internal plate normalization. For quality assessment of the screening the Log-Z-score was determined. Obtained values were calculated on the normalized nucleocytoplasmic MK2-fluorescence intensity ratio (average of the mean) of respective data-points.
Image analysis and result calculations were performed as described.

[1] = tested on: TNFα release in human whole blood; assay: Whole blood assay (WBA), TNFα release after LPS stimulation; type: cell-based; conditions: N = 3, read-out: WBA TNFα IC50 ± SD
Procedure: For determination of inhibitor potency of the compounds by detection of TNFα release in human whole blood an in vitro assay using human whole blood stimulated with LPS for TNFα synthesis is a reliable test system for inhibitors of cytokine synthesis, especially for p38 MAP kinase inhibitors as TNFα synthesis is mainly mediated by p38 MAP kinase. Therefore, the synthesis and release of proinflammatory cytokines in human whole blood from a healthy donor is stimulated using a LPS solution (1 µg/mL, Sigma-Aldrich, Germany) after preincubation of inhibitor dilution (as described in [26]). After 2.5 hours of incubation in a 5% CO2 incubator, the stimulation is stopped and plasma is obtained by centrifugation of the whole blood, followed by TNFα readout from the plasma using a commercially available TNFα ELISA kit (R&D Systems, Germany). The blood sample was obtained with the written informed consent of the donor to participate in this study. The ethics committee (Ethik-Kommission der Medizinischen Fakultät und am Universitätsklinikum Tuebingen) state that an ethical statement is not mandatory when the researchers use their own blood/plasma for experiments. The german statutes and the Declaration of Helsinki are not aimed at experiments using samples provided by the principal investigator him or herself. In the opinion of the committee, the Declaration of Helsinki is designed to protect the patient’s interests and to avoid abuse of the patient’s material.

p38α MAPK = p38α MAPK (Homo sapiens, UniProt Q16539); assay: Biochemical p38 MAPK activity assay (BAA), ELISA of ATF-2 phosphorylation
Sequence of p38α MAPK (Q16539 whole entry): as above
Procedure: Kinase activity assays were used for identification of p38α MAPK and JNK3 inhibitors. The experimental settings and screening procedures are previously described by Goettert et al., [28].
Briefly, the ELISA assay was performed using 96-well plates (MaxiSorp, NUNC, Germany) by measuring the activity of p38α MAPK after incubation with a candidate inhibitor. Therefore, the phosphorylation degree of activation transcription factor 2 (ATF-2) is detected by a monoclonal peroxidase conjugated antibody in a dilution of 1∶5000 (Sigma-Aldrich, Germany). This monoclonal anti-phospho-ATF-2 (Thr69/71) peroxidase-conjugated antibody reacts specifically with dually phosphorylated ATF-2, detecting neither the mono- nor the unphosphorylated kinase substrate. ATF- 2 is a natural substrate of the p38 MAPKs and JNK3, and its phosphorylation is inversely correlated with the inhibitor potency.

JNK3 = assay: Phospho-Ser63-c-Jun/JNK assay in U2OS MK2-EGFP cells; type: cell-based, human; conditions: phospho-c-Jun Ser-63 endpoint, multiplexed with MK2-EGFP assay
JNK = tested on: JNK; set-up: method as in PMID 11717429; conditions: cited from earlier work
U2OS MK2-EGFP cells = assay: Cellular viability assay (AlamarBlue); type: cell-based, human; conditions: 24 h, 15 nM–15 µM
Procedure: The cellular viability assay was performed according to standard procedures (for details see AlamarBlue manual #DAL1100, Life Technologies, Germany). Briefly, ∼ 15.000 cells of the U2OS MK2-EGFP clone-RA#2 cell line were plated in 96 well µclear plate and grown in growth media until sub-confluency. Subsequently, cells were treated with compounds in indicated concentrations for 24 h at 37°C in a humidified chamber containing 5% CO2. After compound treatment the amount of living cells was monitored microscopically and cell-viability was determined using the AlamarBlue assay. For this purpose, resazurin was added freshly to the growth media devoid of phenol red as described. The media premixed with the resazurin substrate was pre-warmed to 37°C and 200 µL were added to the pre-treated cells in the 96-well plate. Following incubation at 37°C, 5% CO2 for 4 h the fluorescence of the media was measured in a PHERAstar photometer (BMG Labtech, USA) with the filter sets: Ex: 540nm/Em: 580nm.

[2] = inhibition of phosphorylation of ATF2, N = 3, read-out: BAA p38 IC50 ± SD

nuc/cyt ratio at 15 nM ± SD (p38 MAPK)	IC50 [1] [nM]	IC50 (p38α MAPK; read-out: BAA p38 IC50 ± SD) [nM]	SMILES	further results
1,064±0,1062	47	10.1	Nc1ccccc1Nc1ccc2c(c1)CCc1ccc(OC[C@H](O)CO)cc1C2=O [LN809]	–
1,111±0,0012	173	11.7	CC(C)C(C)Nc1cc(-c2[nH]c(SCCCO)nc2-c2ccc(F)cc2)ccn1 (stereo not shown) [LN949]	–
1,068±0,0406	182	5.7	CC(C)Nc1cc(-c2[nH]c(SC[C@H](O)CO)nc2-c2ccc(F)cc2)ccn1 [LN954]	–
1,158±0,0756	129	–	CC(C)Nc1cc(-c2[nH]c(SCCO)nc2-c2ccc(F)cc2)ccn1 [LN957]	IC50 (p38α MAPK; [2]): 3 nM
1,088±0,0781	106	1.1	O=C(Nc1cc(Nc2ccc3c(c2)CCc2ccc(OCCN4CCOCC4)cc2C3=O)ccc1F)c1ccoc1 [LN1311]	–
1,088±0,0231	37	3.2	CNC(=O)c1ccc2c(c1)C(=O)c1ccc(Nc3ccc(F)cc3F)cc1CC2 [LN1496]	–
1,057±0,0332	221	1.3	O=C(Nc1cc(Nc2ccc3c(c2)CCc2ccc(OCCN4CCOCC4)cc2C3=O)c(F)cc1F)c1ccccc1 [LN1503]	–
1,206±0,0326	6	–	O=C(Nc1cc(Nc2ccc3c(c2)CCc2ccc(OCCN4CCOCC4)cc2C3=O)c(F)cc1F)c1ccsc1 [LN1637]	IC50 (p38α MAPK; [2]): 0.5 nM; IC50 (p38α MAPK; summary of Table 1, read-out: BAA, IC50): 5 nM
1,211±0,1416	–	1.9	O=C(NCC(O)CO)c1ccc2c(c1)C(=O)c1ccc(Nc3cc(NC(=O)c4ccsc4)c(F)cc3F)cc1CC2 (stereo not shown) [LN1878]	–
1,288±0,2483	–	3.7	CC(C)Sc1nc(-c2ccc(F)cc2)c(-c2ccnc(NC3CCOCC3)c2)[nH]1 [RN4296]	potency towards p38 inhibition in the translocation screen (p38 MAPK): most potent compound towards p38 inhibition
–	–	–	Oc1c2ccccc2c2c3c(cccc13)N=N2 [SP600125]	inhibition of p38 and JNK3 (selectivity) (JNK3): Selective inhibition of JNK3 activity; selectivity over p38 (JNK): 300 fold

SMILES	nuc/cyt ratio at 15 nM ± SD (p38 MAPK)	IC50 [1] [nM]	IC50 (p38α MAPK; read-out: BAA p38 IC50 ± SD) [nM]	further results
O=C1c2ccc(Nc3ccc(F)cc3F)cc2CCc2ccc(OC[C@H](O)CO)cc21 [Skepinone-L, reference compound]	–	59	–	cellular effectiveness in log-dilution experiments (p38 MAPK; 0 µM –100 µM, living cells): inhibits p38 from 10 nM –1 µM in living cells; potency towards p38 inhibition in the translocation screen (p38 MAPK): outstanding potency; effect on nuclear export of MK2-EGFP (p38 MAPK; 10 µM compound): abolishes nuclear export of MK2-EGFP; cytotoxic effects / cellular viability (U2OS MK2-EGFP cells): do not affect cellular viability
